Experimental data: US20230089867A1, “CYCLIC PENTAMER COMPOUNDS AS PROPROTEIN CONVERTASE SUBTILISIN/KEXIN TYPE 9 (PCSK9) INHIBITORS FOR THE TREATMENT OF METABOLIC DISORDER” (Novartis AG, priority 2018, published 2023)
pIC50: −log10 of the molar value. Where two headings read alike, the source gives them in different places.

Assays:
[1] = amide bond, 18-membered ring, HATU/HOAt/2,6-lutidine, DCM
human PCSK9 = human PCSK9 (Homo sapiens, UniProt Q8NBP7); assay: PCSK9 ligand binding TR-FRET assay (interference with binding of human PCSK9 to human LDLR); details: for Max % inhibition: PCSK9 FRET assay, efficacy (Amax), 100% = 1 uM unlabeled human PCSK9, 0% = DMSO; for pIC50: TR-FRET, human PCSK9 Alexa Fluor 647 / human LDLR extracellular domain-Europium Kryptate, read-out: PCSK9 FRET Assay IC50
Outline: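 Threefold compound dilutions were pre-incubated 30 min with PCSK9, after which 4 nM Europium Kryptate-tagged human LDLR ectodomain was added for a further 2 h.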

[2] = amide bond, 18-membered ring, HATU/HOAt/2,6-lutidine

human PCSK9, sequence (Q8NBP7 153-692): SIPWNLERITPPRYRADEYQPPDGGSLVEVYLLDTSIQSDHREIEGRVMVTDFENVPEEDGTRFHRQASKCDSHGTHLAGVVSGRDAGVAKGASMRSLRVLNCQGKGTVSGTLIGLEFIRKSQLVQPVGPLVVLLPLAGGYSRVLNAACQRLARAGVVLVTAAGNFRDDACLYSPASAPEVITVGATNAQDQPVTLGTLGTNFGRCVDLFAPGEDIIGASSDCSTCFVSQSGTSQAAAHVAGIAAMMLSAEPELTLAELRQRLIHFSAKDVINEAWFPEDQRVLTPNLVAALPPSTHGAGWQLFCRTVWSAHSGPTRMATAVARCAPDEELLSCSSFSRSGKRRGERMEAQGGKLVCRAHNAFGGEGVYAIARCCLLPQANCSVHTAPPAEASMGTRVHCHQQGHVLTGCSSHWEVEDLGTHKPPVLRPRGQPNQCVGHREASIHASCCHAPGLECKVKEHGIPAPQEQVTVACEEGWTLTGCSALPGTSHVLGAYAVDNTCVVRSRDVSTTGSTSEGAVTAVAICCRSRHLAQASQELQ
human PCSK9, sequence (Q8NBP7 31-152 partner limits assumed): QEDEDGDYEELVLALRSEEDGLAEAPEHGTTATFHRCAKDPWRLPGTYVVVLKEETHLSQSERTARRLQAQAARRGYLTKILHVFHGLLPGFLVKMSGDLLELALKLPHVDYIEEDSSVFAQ

Compound | Max % inhibition (human PCSK9) | pIC50 (human PCSK9) | further results
CCc1ccc(CN2C(=O)C[C@@H](Cc3ccccc3)C(=O)N(C)[C@@H](C)CNC(=O)C[C@H](Cc3ccc(Cl)cc3)N(C)C(=O)[C@H](COC)NC(=O)[C@@H]2CCF)c(Oc2ccc(-c3cnc(CN4CCCC4)n3C)cc2)c1 [Compound 26, (2S,5S,8S,13S,16R)-16-benzyl-8-(4-chlorobenzyl)-1-(4-ethyl-2-(4-(1-methyl-2-(pyrrolidin-1-ylmethyl)-1H-imidazol-5-yl)phenoxy)benzyl)-2-(2-fluoroethyl)-5-(methoxymethyl)-7,13,14-trimethyl-1,4,7,11,14-pentaazacyclooctadecane-3,6,10,15,18-pentaone] | 104.11% | 8.62 | ring closure, isolated yield ([1]; from (3S,6S,9S,14S,17R)-17-benzyl-9-(4-chlorobenzyl)-1-(4-ethyl-2-(4-(1-methyl-2-(pyrrolidin-1-ylmethyl)-1H-imidazol-5-yl)phenoxy)phenyl)-3-(2-fluoroethyl)-6-(methoxymethyl)-8,14,15-trimethyl-4,7,11,16-tetraoxo-2,5,8,12,15-pentaazanonadecan-19-oic acid, 0.238 mM, 39.0 °C): 47%
C=CC[C@@H]1CC(=O)N(Cc2ccc(Cl)cc2Oc2ccc(-c3cnc(CN(C)C)n3C)cc2)[C@@H](C)C(=O)N[C@@H](COC)C(=O)N(C)[C@@H](Cc2ccc(Cl)cc2)CC(=O)NC[C@H](C)N(C)C1=O [Compound 44, (2S,5S,8S,13S,16R)-16-allyl-1-(4-chloro-2-(4-(2-((dimethylamino)methyl)-1-methyl-1H-imidazol-5-yl)phenoxy)benzyl)-8-(4-chlorobenzyl)-5-(methoxymethyl)-2,7,13,14-tetramethyl-1,4,7,11,14-pentaaza cyclooctadecane-3,6,10,15,18-pentaone] | 102.15% | 8.59 | ring closure, isolated yield ([1]; from (3S,6S,9S,14S,17R)-17-allyl-1-(4-chloro-2-(4-(2-((dimethylamino)methyl)-1-methyl-1H-imidazol-5-yl)phenoxy)phenyl)-9-(4-chlorobenzyl)-6-(methoxymethyl)-3,8,14,15-tetramethyl-4,7,11,16-tetraoxo-2,5,8,12,15-pentaazanonadecan-19-oic acid, 45.0 °C): 26%
CCOC[C@@H]1NC(=O)[C@H](C)N(Cc2ccc(Cl)cc2Oc2ccc(-c3cnc(CN(C)C)n3C)cc2)C(=O)C[C@@H](C)C(=O)N(C)[C@@H](C)CNC(=O)C[C@H](Cc2ccc(Cl)cc2)N(C)C1=O.O=CO [Compound 53, (2S,5S,8S,13S,16R)-1-(4-chloro-2-(4-(2-((dimethylamino)methyl)-1-methyl-1H-imidazol-5-yl)phenoxy)benzyl)-8-(4-chlorobenzyl)-5-(ethoxymethyl)-2,7,13,14,16-pentamethyl-1,4,7,11,14-pentaaza cyclooctadecane-3,6,10,15,18-pentaone formate] | 92.32% | 7.68 | ring closure, isolated yield ([1]; from (3S,6S,9S,14S,17R)-1-(4-chloro-2-(4-(2-((dimethylamino)methyl)-1-methyl-1H-imidazol-5-yl)phenoxy)phenyl)-9-(4-chlorobenzyl)-6-(ethoxymethyl)-3,8,14,15,17-pentamethyl-4,7,11,16-tetraoxo-2,5,8,12,15-pentaazanonadecan-19-oic acid hydrochloride, 1.27 mM, 45.0 °C): 9%
C[C@H]1CNC(=O)C[C@H](Cc2ccc(Cl)cc2)N(C)C(=O)[C@H](CC(=O)OC(C)(C)C)NC(=O)[C@H](C)N(Cc2ccc(Cl)cc2Oc2ccc(-c3cnc(CN(C)C)n3C)cc2)C(=O)C[C@@H](Cc2ccccc2)C(=O)N1C [Compound 185, tert-butyl 2-((2S,5S,8S,13S,16R)-16-benzyl-1-(4-chloro-2-(4-(2-((dimethylamino)methyl)-1-methyl-1H-imidazol-5-yl)phenoxy)benzyl)-8-(4-chlorobenzyl)-2,7,13,14-tetramethyl-3,6,10,15,18-pentaoxo-1,4,7,11,14-pentaazacyclooctadecan-5-yl)acetate] | 96.86% | 7.94 | ring closure, isolated yield ([1]; from (3S,6S,9S,14S,17R)-17-benzyl-6-(2-(tert-butoxy)-2-oxoethyl)-1-(4-chloro-2-(4-(2-((dimethyl amino)methyl)-1-methyl-1H-imidazol-5-yl)phenoxy)phenyl)-9-(4-chlorobenzyl)-3,8,14,15-tetramethyl-4,7,11,16-tetraoxo-2,5,8,12,15-pentaazanonadecan-19-oic acid, 1.85 mM, 45.0 °C): 46%
COC[C@@H]1NC(=O)[C@H](C)N(Cc2ccc(Cl)cc2Oc2ccc(-c3cnc(CN(C)C)n3C)cc2)C(=O)C[C@@H](Cc2cccc(C)n2)C(=O)N(C)[C@H]2CCCC[C@@H]2NC(=O)C[C@H](Cc2ccc(Cl)cc2)N(C)C1=O [Compound 265, (4S,7S,10S,14R,16aS,20aS)-11-(4-chloro-2-(4-(2-((dimethylamino)methyl)-1-methyl-1H-imidazol-5-yl)phenoxy)benzyl)-4-(4-chlorobenzyl)-7-(methoxymethyl)-5,10,16-trimethyl-14-((6-methylpyridin-2-yl)methyl)hexadecahydrobenzo-[l][1,4,7,11,14]pentaazacyclooctadecine-2,6,9,12,15(3H)-pentaone] | 104.88% | 6.51 | ring closure, isolated yield ([1]; from (R)-4-(((1S,2S)-2-((S)-3-((S)-2-((S)-2-((4-chloro-2-(4-(2-((dimethylamino)methyl)-1-methyl-1H-imidazol-5-yl)phenoxy)benzyl)amino)propanamido)-3-methoxy-N-methylpropanamido)-4-(4-chlorophenyl)butanamido)cyclohexyl)(methyl)amino)-3-((6-methylpyridin-2-yl)methyl)-4-oxobutanoic acid, 45.0 °C): 31.1%
(2S,5S,8S,13S,16R)-16-benzyl-8-(4-chlorobenzyl)-1-(4-ethyl-2-(4-(1-methyl-2-(pyrrolidin-1-ylmethyl)-1H-imidazol-5-yl)phenoxy)benzyl)-5-(methoxymethyl)-2,7,13,14-tetramethyl-1,4,7,11,14-pentaazacyclooctadecane-3,6,10,15,18-pentaone hydrochloride |  |  | ring closure, yield after HPLC ([2]; DCM, 0.777 mM, 40.0 °C): 47%
(4S,7S,10S,14R,16aS,20aS)-14-Benzyl-11-(4-chloro-2-(4-(2-((dimethylamino)methyl)-1-methyl-1H-imidazol-5-yl)phenoxy)benzyl)-4-(4-chlorobenzyl)-7-(methoxymethyl)-5,16-dimethyl-10-(3-(3,3,4,4-tetrafluoropyrrolidin-1-yl)propyl)hexadecahydrobenzo[l][1,4,7,11,14]pentaazacyclooctadecine-2,6,9,12,15(3H)-pentaone |  |  | ring closure, yield after HPLC ([2]; DCM, 0.524 mM, 39.0 °C): 17%
(4S,7S,10S,16aS,20aS)-4-(4-chlorobenzyl)-11-(2-(difluoromethoxy)-6-(4-(2-((dimethylamino)methyl)-1-methyl-1H-imidazol-5-yl)phenoxy)benzyl)-7-(methoxymethyl)-5,10,16-trimethylhexadecahydro-benzo[l][1,4,7,11,14]pentaazacyclooctadecine-2,6,9,12,15(3H)-pentaone |  |  | ring closure, yield after HPLC ([2]; DCM/NMP 10:1, 0.91 mM, 40.0 °C): 22%
